From patent publication US20250326713A1, “INHIBITORS OF MsbA AS ANTIBIOTICS, PHARMACEUTICAL COMPOSITIONS, AND USES THEREOF” (priority 2022, published 2025) come the findings set out here.

Each structure is given as a SMILES string. In brackets after ≈: the same amount, converted by molar mass. Bounds are passed on as bounds.

This test deals with various strains of bacteria. As to the kind of experiment: Antimicrobial potency: bacterial growth inhibition by OD600 (Antibacterial assay 1, MITC95). The format is cell-based, A. baumannii. To be noted: lowest concentration giving >95% growth inhibition, CAMHB, 18-22 h. As to the method: The concentrations of compounds required to inhibit the growth of various strains of bacteria were determined in an assay that assessed bacterial growth by measuring optical density at 600 nm (OD600). Test articles were dissolved in 100% DMSO and serially diluted two-fold from their maximal concentration in 100% DMSO. Forty-nine μl of bacterial inoculum (at approx. 2×10^5 cfu/mL in CAMHB) were put into wells of an assay plate. One μl of compound or DMSO was transferred from the source plate to the assay plate. The completed assay plates were then incubated at 35+2degC for 18-22 h. Bacterial growth was measured by reading OD600 on a spectrophotometer. Data analysis calculates the lowest concentration of compound which results in >95% growth inhibition (minimum inhibitory threshold concentration 95%, MITC95).

The MIC is the smallest concentration in the dilution series that meets the test's criterion for growth inhibition. A high value points to a less susceptible organism.

Take `O=C(O)Cc1cc(CN2CC(Oc3ccc(NS(=O)(=O)c4cnn(-c5ccc(Cl)cc5)c4)c(CC(=O)O)c3)C2)ccc1NS(=O)(=O)c1cnn(-c2ccc(Cl)cc2)c1` [Compound 1, 2-(5-((1-(3-(carboxymethyl)-4-(1-(4-chlorophenyl)-1H-pyrazole-4-sulfonamido)benzyl)azetidin-3-yl)oxy)-2-(1-(4-chlorophenyl)-1H-pyrazole-4-sulfonamido)phenyl) acetic acid]: the minimum inhibitory concentration (MIC) (Acinetobacter baumannii, 20 h) was 0.277 µM (≈ 0.24 µg/mL).
Same read-out and setting: the same measure for `O=C(O)Cc1cc(CN2CC(Oc3ccc(NS(=O)(=O)c4cnn(-c5ccc(Cl)cc5)c4)c(C(=O)O)c3)C2)ccc1NS(=O)(=O)c1cnn(-c2ccc(Cl)cc2)c1` [Compound 2, 5-((1-(3-(carboxymethyl)-4-((1-(4-chlorophenyl)-1H-pyrazole)-4-sulfonamido)-benzyl)azetidin-3-yl)oxy)-2-((1-(4-chlorophenyl)-1H-pyrazole)-4-sulfonamido)benzoic acid]: 0.0692 µM (≈ 0.059 µg/mL); for `O=C(O)c1cc(OC2CN(Cc3ccc(NS(=O)(=O)c4cnn(-c5ccc(F)cc5)c4)c(S(=O)(=O)O)c3)C2)ccc1NS(=O)(=O)c1cnn(-c2ccc(F)cc2)c1` [Compound 3, 2-((1-(4-fluorophenyl)-1H-pyrazole)-4-sulfonamido)-5-((1-(4-((1-(4-fluorophenyl)-1H-pyrazole)-4-sulfonamido)-3-sulfobenzyl)azetidin-3-yl)oxy)benzoic acid]: 0.277 µM (≈ 0.233 µg/mL); for `O=C(O)c1cc(COC2CC(OCc3ccc(NS(=O)(=O)c4cnn(-c5ccc(F)cc5)c4)c(C(=O)O)c3)C2)ccc1NS(=O)(=O)c1cnn(-c2ccc(F)cc2)c1` (stereo not drawn) [Compound 12, trans-5-((3-((3-carboxy-4-((1-(4-fluorophenyl)-1H-pyrazole)-4-sulfonamido)benzyl)oxy)-cyclobutoxy)methyl)-2-((1-(4-fluorophenyl)-1H-pyrazole)-4-sulfonamido)benzoic acid]: 0.138 µM (≈ 0.115 µg/mL).
`O=C(O)c1cc(COC2CC(OCc3ccc(NS(=O)(=O)c4cnn(-c5ccc(F)cc5)c4)c(C(=O)O)c3)C2)ccc1NS(=O)(=O)c1cnn(-c2ccc(F)cc2)c1` (stereo not drawn) [Compound 13] had an MIC of 0.196 µM (≈ 0.164 µg/mL).
Molecule `O=C(O)c1cc(COC2CC(OCc3ccc(NS(=O)(=O)c4ccc(-c5ccc(F)cc5)cc4)c(C(=O)O)c3)C2)ccc1NS(=O)(=O)c1ccc(-c2ccc(F)cc2)cc1` (stereo not drawn) [Compound 14] came in with an MIC (Acinetobacter baumannii, 20 h) of 0.0245 µM (≈ 0.0209 µg/mL).
Still for that read-out and setting: the same measure for `O=C(O)c1cc(COC2CC(OCc3ccc(NS(=O)(=O)c4ccc(-c5ccc(F)cc5)cc4)c(C(=O)O)c3)C2)ccc1NS(=O)(=O)CCc1ccc(Cl)cc1` (stereo not drawn) [Compound 16]: less than 0.0488 µM; for `O=C(O)c1cc(COC2CC(OCc3ccc(NS(=O)(=O)c4ccc(-c5ccc(Cl)cc5)cc4)c(C(=O)O)c3)C2)ccc1NS(=O)(=O)CCc1ccc(Cl)cc1` (stereo not drawn) [Compound 17]: less than 0.0488 µM.
`O=C(O)c1cc(COC2CC(OCc3ccc(NS(=O)(=O)c4ccc(-c5ccc(Cl)cc5)cc4)c(C(=O)O)c3)C2)ccc1NS(=O)(=O)CCc1ccc(F)cc1` (stereo not drawn) [Compound 18] came in with an MIC (Acinetobacter baumannii, 20 h) of 0.0122 µM (≈ 0.01 µg/mL). This lies in the double-digit nanomolar range.
The same measure, in the same setting: the same measure for `O=C(O)c1cc(OCC2CCC(COc3ccc(NS(=O)(=O)c4cnn(-c5ccc(Cl)cc5)c4)c(C(=O)O)c3)O2)ccc1NS(=O)(=O)c1cnn(-c2ccc(Cl)cc2)c1` (stereo not drawn) [Compound 19, 5-((5-((3-Carboxy-4-((1-(4-chlorophenyl)-1H-pyrazole)-4-sulfonamido)-phenoxy)methyl)tetrahydrofuran-2-yl)methoxy)-2-((1-(4-chlorophenyl)-1H-pyrazole)-4-sulfonamido)benzoic acid]: 0.0245 µM (≈ 0.0217 µg/mL); for `O=C(O)c1cc(OC[C@H]2CC[C@@H](COc3ccc(NS(=O)(=O)c4cnn(-c5ccc(F)cc5)n4)c(C(=O)O)c3)O2)ccc1NS(=O)(=O)c1cnn(-c2ccc(F)cc2)n1` [Compound 20]: 0.0245 µM (≈ 0.0209 µg/mL); for `O=C(O)c1cc(OC[C@H]2CC[C@@H](COc3ccc(NS(=O)(=O)CCc4ccc(Cl)cc4)c(C(=O)O)c3)O2)ccc1NS(=O)(=O)CCc1ccc(Cl)cc1` [Compound 21]: 0.0489 µM (≈ 0.0395 µg/mL).
Still for that read-out and setting: the same measure for `O=C(O)c1cc(OC[C@H]2CC[C@@H](COc3ccc(NS(=O)(=O)c4ccc(-c5ccc(F)cc5)cc4)c(C(=O)O)c3)O2)ccc1NS(=O)(=O)c1ccc(-c2ccc(F)cc2)cc1` [Compound 22]: 0.0489 µM (≈ 0.0426 µg/mL); for `O=C(O)c1cc(OC[C@H]2CC[C@@H](COc3ccc(NS(=O)(=O)c4ccc(-c5ccc(Cl)cc5)s4)c(C(=O)O)c3)O2)ccc1NS(=O)(=O)c1ccc(-c2ccc(Cl)cc2)s1` [Compound 23]: 0.0346 µM (≈ 0.0317 µg/mL).
Still for that read-out and setting: the same measure for `O=C(O)c1cc(OC[C@H]2C[C@H](Oc3ccc(NS(=O)(=O)c4cnn(-c5ccc(Cl)cc5)c4)c(C(=O)O)c3)CN2)ccc1NS(=O)(=O)c1cnn(-c2ccc(Cl)cc2)c1` [Compound 24, trans-5-((5-((3-carboxy-4-((1-(4-chlorophenyl)-1H-pyrazole)-4-sulfonamido)-phenoxy)methyl)pyrrolidin-3-yl)oxy)-2-((1-(4-chlorophenyl)-1H-pyrazole)-4-sulfonamido)benzoic acid]: 0.277 µM (≈ 0.241 µg/mL); for `O=C(O)c1cc(CNC2CC(CNc3ccc(NS(=O)(=O)c4cnn(-c5ccc(F)cc5)c4)c(C(=O)O)c3)C2)ccc1NS(=O)(=O)c1cnn(-c2ccc(F)cc2)c1` (stereo not drawn) [Compound 25, cis-5-(((3-((3-carboxy-4-((1-(4-fluorophenyl)-1H-pyrazole)-4-sulfonamido)benzyl)amino)cyclobutyl)methyl)amino)-2-((1-(4-fluorophenyl)-1H-pyrazole)-4-sulfonamido)benzoic acid]: 0.155 µM (≈ 0.129 µg/mL); for `O=C(O)c1cc(NCC2CC(NCc3ccc(NS(=O)(=O)c4cnc(-c5ccc(Cl)cc5)s4)c(C(=O)O)c3)C2)ccc1NS(=O)(=O)c1cnn(-c2ccc(F)cc2)c1` (stereo not drawn) [Compound 26]: 0.0489 µM (≈ 0.0424 µg/mL).
On to `O=C(O)c1cc(CNC2CC(CNc3ccc(NS(=O)(=O)c4cnn(-c5ccc(F)cc5)c4)c(C(=O)O)c3)C2)ccc1NS(=O)(=O)CCc1ccc(Cl)cc1` (stereo not drawn) [Compound 27], for which the MIC (Acinetobacter baumannii, 20 h) amounted to 0.391 µM (≈ 0.317 µg/mL).
The molecule `O=C(O)c1cc(NCC2CC(NCc3ccc(NS(=O)(=O)N4CC(Oc5ccc(F)cc5)C4)c(C(=O)O)c3)C2)ccc1NS(=O)(=O)c1cnn(-c2ccc(F)cc2)c1` (stereo not drawn) [Compound 28] came in with an MIC (Acinetobacter baumannii, 20 h) of 0.196 µM (≈ 0.164 µg/mL).
In the case of `O=C(O)c1cc(CNC2CC(CNc3ccc(NS(=O)(=O)c4cnn(-c5ccc(F)cc5)c4)c(C(=O)O)c3)C2)ccc1NS(=O)(=O)c1cnn(-c2ccc(Cl)cc2)c1` (stereo not drawn) [Compound 29], the MIC (Acinetobacter baumannii, 20 h) worked out at 0.0489 µM (≈ 0.0415 µg/mL). This MIC is about 4-fold lower than that of the molecule before.
Regarding `O=C(O)c1cc(CNC2CC(CNc3ccc(NS(=O)(=O)c4cnn(-c5ccc(F)cc5)c4)c(C(=O)O)c3)C2)ccc1NS(=O)(=O)c1ccc(-c2ccc(Cl)cc2)cc1` (stereo not drawn) [Compound 30], the MIC (Acinetobacter baumannii, 20 h) was found to be 0.277 µM (≈ 0.238 µg/mL). This MIC lies about 5.7-fold higher than the previous one.
On the same count and under the same terms, the same measure for `O=C(O)c1cc(NCC2CC(NCc3ccc(NS(=O)(=O)c4cnn(-c5ccc(F)cc5)n4)c(C(=O)O)c3)C2)ccc1NS(=O)(=O)c1cnn(-c2ccc(F)cc2)c1` (stereo not drawn) [Compound 31]: 0.196 µM (≈ 0.163 µg/mL); for `O=C(O)c1cc(CNC2CC(CNc3ccc(NS(=O)(=O)c4cnn(-c5ccc(Cl)cc5)c4)c(C(=O)O)c3)C2)ccc1NS(=O)(=O)c1cnn(-c2ccc(Cl)cc2)c1` (stereo not drawn) [Compound 32]: 0.0245 µM (≈ 0.0212 µg/mL); for `Cn1nc(-c2ccc(F)cc2)cc1S(=O)(=O)Nc1ccc(CNC2CC(CNc3ccc(NS(=O)(=O)c4cnn(-c5ccc(F)cc5)c4)c(C(=O)O)c3)C2)cc1C(=O)O` (stereo not drawn) [Compound 33]: 0.0489 µM (≈ 0.0414 µg/mL).
On to `Cn1nc(-c2ccc(F)cc2)cc1S(=O)(=O)Nc1ccc(CNC2CC(CNc3ccc(NS(=O)(=O)c4cnn(-c5ccc(Cl)cc5)c4)c(C(=O)O)c3)C2)cc1C(=O)O` (stereo not drawn) [Compound 34], for which the minimal inhibitory concentration (MIC) (Acinetobacter baumannii, 20 h) was 0.0489 µM (≈ 0.0422 µg/mL).
With `O=C(O)c1cc(CNC2CC(CNc3ccc(NS(=O)(=O)c4cnn(-c5ccc(Cl)cc5)c4)c(C(=O)O)c3)C2)ccc1NS(=O)(=O)c1cnn(-c2ccc(F)cc2)c1` (stereo not drawn) [Compound 35], the MIC (Acinetobacter baumannii, 20 h) is 0.0489 µM (≈ 0.0415 µg/mL).
Under “Acinetobacter baumannii, 20 h”, `O=C(O)c1cc(NCC2CC(NCc3ccc(NS(=O)(=O)N4CCOC(c5ccc(F)cc5)C4)c(C(=O)O)c3)C2)ccc1NS(=O)(=O)c1cnn(-c2ccc(F)cc2)c1` (stereo not drawn) [Compound 36] gave an MIC of 0.0489 µM (≈ 0.0417 µg/mL).
On the same count and under the same terms, for `O=C(O)c1cc(COC2CN(Cc3ccc(NS(=O)(=O)c4cnn(-c5ccc(Cl)cc5)c4)c(C(=O)O)c3)C2)ccc1NS(=O)(=O)c1cnn(-c2ccc(Cl)cc2)c1` [Compound 37, 5-(((1-(3-carboxy-4-(1-(4-chlorophenyl)-1H-pyrazole-4-sulfonamido)benzyl)azetidin-3-yl)oxy)methyl)-2-(1-(4-chlorophenyl)-1H-pyrazole-4-sulfonamido)benzoic acid] the value was 0.0692 µM (≈ 0.059 µg/mL); for `O=C(O)c1cc(COC2CN(Cc3ccc(NS(=O)(=O)c4cnn(-c5ccc(F)cc5)c4)c(C(=O)O)c3)C2)ccc1NS(=O)(=O)c1cnn(-c2ccc(F)cc2)c1` [Compound 38], 0.391 µM (≈ 0.321 µg/mL).
The molecule `O=C(O)c1cc(CN2CC(Oc3ccc(NS(=O)(=O)c4cnn(-c5ccc(F)cc5)c4)c(C(=O)O)c3)C2)ccc1NS(=O)(=O)CCCCCCc1ccc(Cl)cc1` [Compound 40] returned an MIC (Acinetobacter baumannii, 20 h) of 0.0489 µM (≈ 0.0411 µg/mL).
The same measure, in the same setting: the same measure for `O=C(O)c1cc(CN2CC(Oc3ccc(NS(=O)(=O)c4cnn(-c5ccc(Cl)cc5)c4)c(C(=O)O)c3)C2)ccc1NS(=O)(=O)CCCCc1ccc(Cl)cc1` [Compound 41]: 0.0122 µM (≈ 0.0101 µg/mL); for `O=C(O)c1cc(CN2CC(Oc3ccc(NS(=O)(=O)c4cnn(-c5ccc(Cl)cc5)c4)c(C(=O)O)c3)C2)ccc1NS(=O)(=O)CCCc1ccc(F)cc1` [Compound 42]: 0.0489 µM (≈ 0.039 µg/mL).
The same measure, in the same setting: for `O=C(O)c1cc(CN2CC(Oc3ccc(NS(=O)(=O)c4cnn(-c5ccc(F)cc5)c4)c(C(=O)O)c3)C2)ccc1NS(=O)(=O)CCCc1ccc(Cl)cc1` [Compound 43] the value was 0.0489 µM (≈ 0.039 µg/mL).
